{"source": "patent US9695155B2", "about": "“Herbicidal substituted pyrimidinyloxy benzene compounds” (E. I. DU PONT DE NEMOURS AND COMPANY, priority 2013, dated 2017)", "key": {"[1]": {"system": "barnyardgrass", "assay": "Test A preemergence", "type": "in vivo, Echinochloa crus-galli", "conditions": "for Barnyardgrass plant response rating (0 to 100 scale, 0 is no effect, 100 is complete control): 125 g ai/ha; for Barnyardgrass plant response rating: 500 g ai/ha, 0 to 100 scale where 0 is no effect and 100 is complete control", "summary_of_the_method": "(§1)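 Visual injury scored 0–100 (100 = complete control) against untreated controls about 10 days after treatment in a greenhouse. Test chemicals, formulated with surfactant in non-phytotoxic solvent, were sprayed on soil preemergence or on 2-10 cm, one- to two-leaf plants postemergence.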"}, "[2]": {"system": "large (Lg) crabgrass", "assay": "Test A preemergence", "type": "in vivo, Digitaria sanguinalis", "conditions": "for Crabgrass, Large plant response rating (0 to 100 scale): 125 g ai/ha; for Crabgrass, Large plant response rating: 500 g ai/ha, 0 to 100 scale where 0 is no effect and 100 is complete control", "summary_of_the_method": "as §1"}, "[3]": {"system": "giant foxtail", "assay": "Test A preemergence", "type": "in vivo, Setaria faberii", "conditions": "for Foxtail, Giant plant response rating (0 to 100 scale): 125 g ai/ha; for Foxtail, Giant plant response rating: 500 g ai/ha, 0 to 100 scale where 0 is no effect and 100 is complete control", "summary_of_the_method": "as §1"}, "[4]": {"system": "morningglory", "assay": "Test A preemergence", "type": "in vivo, Ipomoea spp.", "conditions": "for Morningglory plant response rating (0 to 100 scale): 125 g ai/ha; for Morningglory plant response rating: 500 g ai/ha, 0 to 100 scale where 0 is no effect and 100 is complete control", "summary_of_the_method": "as §1"}, "[5]": {"system": "pigweed", "assay": "Test A preemergence", "type": "in vivo, Amaranthus retroflexus", "conditions": "for Pigweed plant response rating (0 to 100 scale): 125 g ai/ha; for Pigweed plant response rating: 500 g ai/ha, 0 to 100 scale where 0 is no effect and 100 is complete control", "summary_of_the_method": "as §1"}, "[6]": {"system": "velvetleaf", "assay": "Test A preemergence", "type": "in vivo, Abutilon theophrasti", "conditions": "for Velvetleaf plant response rating (0 to 100 scale): 125 g ai/ha; for Velvetleaf plant response rating: 500 g ai/ha, 0 to 100 scale where 0 is no effect and 100 is complete control", "summary_of_the_method": "as §1"}, "[7]": {"system": "wheat", "assay": "Test A preemergence", "type": "in vivo, Triticum aestivum", "conditions": "for Wheat plant response rating (0 to 100 scale): 125 g ai/ha; for Wheat plant response rating: 500 g ai/ha, 0 to 100 scale where 0 is no effect and 100 is complete control", "summary_of_the_method": "as §1"}, "[8]": {"system": "corn", "assay": "Test A preemergence", "type": "in vivo, Zea mays", "conditions": "for Corn plant response rating (0 to 100 scale): 125 g ai/ha; for Corn plant response rating: 500 g ai/ha, 0 to 100 scale where 0 is no effect and 100 is complete control", "summary_of_the_method": "as §1"}, "[9]": {"system": "barnyardgrass", "assay": "Test A postemergence", "type": "in vivo, Echinochloa crus-galli", "conditions": "0 to 100 scale where 0 is no effect and 100 is complete control; for Barnyardgrass plant response rating: 125 g ai/ha; for Plant response rating, Barnyardgrass: 500 g ai/ha", "summary_of_the_method": "as §1"}, "[10]": {"system": "large (Lg) crabgrass", "assay": "Test A postemergence", "type": "in vivo, Digitaria sanguinalis", "conditions": "0 to 100 scale where 0 is no effect and 100 is complete control; for Crabgrass, Large plant response rating: 125 g ai/ha; for Plant response rating, Crabgrass, Large: 500 g ai/ha", "summary_of_the_method": "as §1"}, "[11]": {"system": "giant foxtail", "assay": "Test A postemergence", "type": "in vivo, Setaria faberii", "conditions": "0 to 100 scale where 0 is no effect and 100 is complete control; for Foxtail, Giant plant response rating: 125 g ai/ha; for Plant response rating, Foxtail, Giant: 500 g ai/ha", "summary_of_the_method": "as §1"}, "[12]": {"system": "morningglory", "assay": "Test A postemergence", "type": "in vivo, Ipomoea spp.", "conditions": "0 to 100 scale where 0 is no effect and 100 is complete control; for Morningglory plant response rating: 125 g ai/ha; for Plant response rating, Morningglory: 500 g ai/ha", "summary_of_the_method": "as §1"}, "[13]": {"system": "pigweed", "assay": "Test A postemergence", "type": "in vivo, Amaranthus retroflexus", "conditions": "0 to 100 scale where 0 is no effect and 100 is complete control; for Pigweed plant response rating: 125 g ai/ha; for Plant response rating, Pigweed: 500 g ai/ha", "summary_of_the_method": "as §1"}, "[14]": {"system": "velvetleaf", "assay": "Test A postemergence", "type": "in vivo, Abutilon theophrasti", "conditions": "0 to 100 scale where 0 is no effect and 100 is complete control; for Velvetleaf plant response rating: 125 g ai/ha; for Plant response rating, Velvetleaf: 500 g ai/ha", "summary_of_the_method": "as §1"}, "[15]": {"system": "wheat", "assay": "Test A postemergence", "type": "in vivo, Triticum aestivum", "conditions": "0 to 100 scale where 0 is no effect and 100 is complete control; for Wheat plant response rating: 125 g ai/ha; for Plant response rating, Wheat: 500 g ai/ha", "summary_of_the_method": "as §1"}, "[16]": {"system": "corn", "assay": "Test A postemergence", "type": "in vivo, Zea mays", "conditions": "0 to 100 scale where 0 is no effect and 100 is complete control; for Corn plant response rating: 125 g ai/ha; for Plant response rating, Corn: 500 g ai/ha", "summary_of_the_method": "as §1"}, "[17]": {"system": "rice", "assay": "Test B flooded paddy test", "type": "in vivo, Oryza sativa", "conditions": "Flood, 250 g ai/ha; 0 to 100 scale where 0 is no effect and 100 is complete control", "summary_of_the_method": "(§2)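 Plants were grown to the 2-leaf stage, then pots were flooded to 3 cm above the soil and compounds were applied directly into the paddy water. That depth was held throughout, and after 13 to 15 days in the greenhouse injury was rated visually against controls on a 0–100 scale (0 no effect, 100 complete control).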"}, "[18]": {"system": "sedge, umbrella", "assay": "Test B flooded paddy test", "type": "in vivo, Cyperus difformis", "conditions": "Flood, 250 g ai/ha; 0 to 100 scale where 0 is no effect and 100 is complete control", "summary_of_the_method": "as §2"}, "[19]": {"system": "Heteranthera limosa", "assay": "Test B flooded paddy test", "type": "in vivo", "conditions": "Flood, 250 g ai/ha; 0 to 100 scale where 0 is no effect and 100 is complete control", "summary_of_the_method": "as §2"}, "[20]": {"system": "barnyardgrass", "assay": "Test B flooded paddy test", "type": "in vivo, Echinochloa crus-galli", "conditions": "Flood, 250 g ai/ha; 0 to 100 scale where 0 is no effect and 100 is complete control", "summary_of_the_method": "as §2"}}}
{"molecule": "Cc1ccc(Oc2ncc(Cl)cn2)c(-n2cc(Br)cn2)c1Br", "note": "[Compound 202]", "values": [{"measurement": "Barnyardgrass plant response rating (0 to 100 scale, 0 is no effect, 100 is complete control)", "setting": "[1]", "result": 0}, {"measurement": "Barnyardgrass plant response rating", "setting": "[1]", "result": 10}, {"measurement": "Crabgrass, Large plant response rating (0 to 100 scale)", "setting": "[2]", "result": 40}, {"measurement": "Crabgrass, Large plant response rating", "setting": "[2]", "result": 70}, {"measurement": "Foxtail, Giant plant response rating (0 to 100 scale)", "setting": "[3]", "result": 10}, {"measurement": "Foxtail, Giant plant response rating", "setting": "[3]", "result": 70}, {"measurement": "Morningglory plant response rating (0 to 100 scale)", "setting": "[4]", "result": 0}, {"measurement": "Morningglory plant response rating", "setting": "[4]", "result": 0}, {"measurement": "Pigweed plant response rating (0 to 100 scale)", "setting": "[5]", "result": 0}, {"measurement": "Pigweed plant response rating", "setting": "[5]", "result": 0}, {"measurement": "Velvetleaf plant response rating (0 to 100 scale)", "setting": "[6]", "result": 0}, {"measurement": "Velvetleaf plant response rating", "setting": "[6]", "result": 0}, {"measurement": "Wheat plant response rating (0 to 100 scale)", "setting": "[7]", "result": 0}, {"measurement": "Wheat plant response rating", "setting": "[7]", "result": 0}, {"measurement": "Corn plant response rating (0 to 100 scale)", "setting": "[8]", "result": 0}, {"measurement": "Corn plant response rating", "setting": "[8]", "result": 0}, {"measurement": "Barnyardgrass plant response rating", "setting": "[9]", "result": 0}, {"measurement": "Plant response rating, Barnyardgrass", "setting": "[9]", "result": 0}, {"measurement": "Crabgrass, Large plant response rating", "setting": "[10]", "result": 10}, {"measurement": "Plant response rating, Crabgrass, Large", "setting": "[10]", "result": 50}, {"measurement": "Foxtail, Giant plant response rating", "setting": "[11]", "result": 10}, {"measurement": "Plant response rating, Foxtail, Giant", "setting": "[11]", "result": 30}, {"measurement": "Morningglory plant response rating", "setting": "[12]", "result": 0}, {"measurement": "Plant response rating, Morningglory", "setting": "[12]", "result": 20}, {"measurement": "Pigweed plant response rating", "setting": "[13]", "result": 30}, {"measurement": "Plant response rating, Pigweed", "setting": "[13]", "result": 50}, {"measurement": "Velvetleaf plant response rating", "setting": "[14]", "result": 50}, {"measurement": "Plant response rating, Velvetleaf", "setting": "[14]", "result": 70}, {"measurement": "Wheat plant response rating", "setting": "[15]", "result": 0}, {"measurement": "Plant response rating, Wheat", "setting": "[15]", "result": 0}, {"measurement": "Corn plant response rating", "setting": "[16]", "result": 0}, {"measurement": "Plant response rating, Corn", "setting": "[16]", "result": 0}, {"measurement": "Plant response rating, Rice", "setting": "[17]", "result": 0}, {"measurement": "Plant response rating, Sedge, Umbrella", "setting": "[18]", "result": 10}, {"measurement": "Plant response rating, Ducksalad", "setting": "[19]", "result": 30}, {"measurement": "Plant response rating, Barnyardgrass", "setting": "[20]", "result": 0}]}
{"molecule": "O=Cc1cccc(Oc2ncc(Cl)cn2)c1-n1cc(Cl)cn1", "note": "[Compound 205]", "values": [{"measurement": "Barnyardgrass plant response rating (0 to 100 scale, 0 is no effect, 100 is complete control)", "setting": "[1]", "result": 0}, {"measurement": "Barnyardgrass plant response rating", "setting": "[1]", "result": 0}, {"measurement": "Crabgrass, Large plant response rating (0 to 100 scale)", "setting": "[2]", "result": 0}, {"measurement": "Crabgrass, Large plant response rating", "setting": "[2]", "result": 0}, {"measurement": "Foxtail, Giant plant response rating (0 to 100 scale)", "setting": "[3]", "result": 0}, {"measurement": "Foxtail, Giant plant response rating", "setting": "[3]", "result": 0}, {"measurement": "Morningglory plant response rating (0 to 100 scale)", "setting": "[4]", "result": 0}, {"measurement": "Morningglory plant response rating", "setting": "[4]", "result": 0}, {"measurement": "Pigweed plant response rating (0 to 100 scale)", "setting": "[5]", "result": 0}, {"measurement": "Pigweed plant response rating", "setting": "[5]", "result": 10}, {"measurement": "Velvetleaf plant response rating (0 to 100 scale)", "setting": "[6]", "result": 0}, {"measurement": "Velvetleaf plant response rating", "setting": "[6]", "result": 10}, {"measurement": "Wheat plant response rating (0 to 100 scale)", "setting": "[7]", "result": 0}, {"measurement": "Wheat plant response rating", "setting": "[7]", "result": 0}, {"measurement": "Corn plant response rating (0 to 100 scale)", "setting": "[8]", "result": 0}, {"measurement": "Corn plant response rating", "setting": "[8]", "result": 0}, {"measurement": "Barnyardgrass plant response rating", "setting": "[9]", "result": 0}, {"measurement": "Plant response rating, Barnyardgrass", "setting": "[9]", "result": 0}, {"measurement": "Crabgrass, Large plant response rating", "setting": "[10]", "result": 0}, {"measurement": "Plant response rating, Crabgrass, Large", "setting": "[10]", "result": 0}, {"measurement": "Foxtail, Giant plant response rating", "setting": "[11]", "result": 0}, {"measurement": "Plant response rating, Foxtail, Giant", "setting": "[11]", "result": 0}, {"measurement": "Morningglory plant response rating", "setting": "[12]", "result": 0}, {"measurement": "Plant response rating, Morningglory", "setting": "[12]", "result": 0}, {"measurement": "Pigweed plant response rating", "setting": "[13]", "result": 0}, {"measurement": "Plant response rating, Pigweed", "setting": "[13]", "result": 0}, {"measurement": "Velvetleaf plant response rating", "setting": "[14]", "result": 10}, {"measurement": "Plant response rating, Velvetleaf", "setting": "[14]", "result": 20}, {"measurement": "Wheat plant response rating", "setting": "[15]", "result": 0}, {"measurement": "Plant response rating, Wheat", "setting": "[15]", "result": 0}, {"measurement": "Corn plant response rating", "setting": "[16]", "result": 0}, {"measurement": "Plant response rating, Corn", "setting": "[16]", "result": 0}, {"measurement": "Plant response rating, Rice", "setting": "[17]", "result": 0}, {"measurement": "Plant response rating, Sedge, Umbrella", "setting": "[18]", "result": 0}, {"measurement": "Plant response rating, Ducksalad", "setting": "[19]", "result": 0}, {"measurement": "Plant response rating, Barnyardgrass", "setting": "[20]", "result": 0}]}
